Where two headings read alike, the source gives them in different places.
Columns and labels:
[1] = test system: HOP-62; experiment: panel of 60 human tumor cell lines, growth inhibition (Non-Small Cell Lung Cancer); settings: Homo sapiens; for GI50: HOP-62; for CC50: HOP-62, read-out: LC50; for IC (TGI): HOP-62, read-out: TGI
[2] = test system: HCC-2998; experiment: panel of 60 human tumor cell lines, growth inhibition (Colon Cancer); settings: Homo sapiens; for GI50: HCC 2998; for CC50: HCC 2998, read-out: LC50; for IC (TGI): HCC 2998, read-out: TGI
[3] = test system: HT29; experiment: as above; settings: for Percent Growth: HT29; for GI50 / CC50 / IC (TGI): Homo sapiens; for GI50: HT-29; for CC50: HT-29, read-out: LC50; for IC (TGI): HT-29, read-out: TGI
[4] = test system: DU-145; experiment: panel of 60 human tumor cell lines, growth inhibition (Prostate Cancer); settings: Homo sapiens; for GI50: DU-145; for CC50: DU-145, read-out: LC50; for IC (TGI): DU-145, read-out: TGI
[5] = test system: U251; experiment: panel of 60 human tumor cell lines, growth inhibition (CNS Cancer); settings: Homo sapiens; for GI50: U-251; for CC50: U-251, read-out: LC50; for IC (TGI): U-251, read-out: TGI
[6] = test system: TK-10; experiment: panel of 60 human tumor cell lines, growth inhibition (Renal Cancer); settings: Homo sapiens; for GI50: TK-10, TK-10; for CC50: TK-10, read-out: LC50; for IC (TGI): TK-10, read-out: TGI
[7] = test system: SF-295; experiment: panel of 60 human tumor cell lines, growth inhibition (CNS Cancer); settings: Homo sapiens; for GI50: SF-295; for CC50: SF-295, read-out: LC50; for IC (TGI): SF-295, read-out: TGI
[8] = test system: SK-OV-3; experiment: panel of 60 human tumor cell lines, growth inhibition (Ovarian Cancer); settings: Homo sapiens; for GI50: SK-OV-3; for CC50: SK-OV-3, read-out: LC50; for IC (TGI): SK-OV-3, read-out: TGI
[9] = test system: IGROV1; experiment: as above; settings: Homo sapiens; for GI50: IGROV-1; for CC50: IGROV-1, read-out: LC50; for IC (TGI): IGROV-1, read-out: TGI
[10] = test system: NCI-H522; experiment: panel of 60 human tumor cell lines, growth inhibition (Non-Small Cell Lung Cancer); settings: Homo sapiens; for GI50: NCI-H522; for CC50: NCI-H522, read-out: LC50; for IC (TGI): NCI-H522, read-out: TGI
[11] = test system: ACHN; experiment: panel of 60 human tumor cell lines, growth inhibition (Renal Cancer); settings: Homo sapiens; for CC50: read-out: LC50; for IC (TGI): read-out: TGI
[12] = test system: BT-549; experiment: panel of 60 human tumor cell lines, growth inhibition (Breast Cancer); settings: Homo sapiens; for GI50: BT-549; for CC50: BT-549, read-out: LC50; for IC (TGI): BT-549, read-out: TGI
[13] = test system: HS 578T; experiment: as above; settings: Homo sapiens, Hs-578T; for CC50: read-out: LC50; for IC (TGI): read-out: TGI
[14] = test system: NCI-H460; experiment: panel of 60 human tumor cell lines, growth inhibition (Non-Small Cell Lung Cancer); settings: Homo sapiens; for GI50: NCI-H460; for CC50: NCI-H460, read-out: LC50; for IC (TGI): NCI-H460, read-out: TGI
[15] = test system: SNB-19; experiment: panel of 60 human tumor cell lines, growth inhibition (CNS Cancer); settings: Homo sapiens; for GI50: SNB-19; for CC50: SNB-19, read-out: LC50; for IC (TGI): SNB-19, read-out: TGI
[16] = test system: HL-60(TB)
[17] = test system: NCI-H23; experiment: panel of 60 human tumor cell lines, growth inhibition (Non-Small Cell Lung Cancer); settings: Homo sapiens; for GI50: NCI-H23; for CC50: NCI-H23, read-out: LC50; for IC (TGI): NCI-H23, read-out: TGI
[18] = test system: NCI-H226; experiment: as above; settings: Homo sapiens; for GI50: NCI-H226; for CC50: NCI-H226, read-out: LC50; for IC (TGI): NCI-H226, read-out: TGI
[19] = test system: 786-0; experiment: panel of 60 human tumor cell lines, growth inhibition (Renal Cancer); settings: Homo sapiens; for GI50: 786-0; for CC50: 786-0, read-out: LC50; for IC (TGI): 786-0, read-out: TGI

Compound: C=C1C(=O)O[C@H]2[C@H]1CC/C(COC(=O)NCCN1CCOCC1)=C\CC[C@@]1(C)O[C@@H]21 [JVM 57, ((1aR,7aS,10aS,10bS,E)-1a-methyl-8-methylene-9-oxo-1a,2,3,6,7,7a,8,9,10a,10b-decahydrooxireno[2′,3′:9,10]-cyclodeca[1,2-b]furan-5-yl)-methyl(2-morpholinoethyl)carbamate]
- GI50 [1]: 27.4 µM
- CC50 [1]: > 100 µM
- IC (TGI) [1]: 53 µM
- GI50 [2]: 19.7 µM
- CC50 [2]: 72.3 µM
- IC (TGI) [2]: 37.7 µM
- Percent Growth ([3]; Log10 Concentration −4.0): −74%
- Percent Growth ([3]; Log10 Concentration −5.0): 43%
- Percent Growth ([3]; Log10 Concentration −6.0): 110%
- Percent Growth ([3]; Log10 Concentration −7.0): 108%
- Percent Growth ([3]; Log10 Concentration −8.0): 102%
- GI50 [3]: 7.83 µM
- CC50 [3]: 62.7 µM
- IC (TGI) [3]: 23.3 µM
- GI50 [4]: 3.74 µM
- CC50 [4]: 37 µM
- IC (TGI) [4]: 13.3 µM
- GI50 [5]: 42.9 µM
- CC50 [5]: > 100 µM
- IC (TGI) [5]: > 100 µM
- GI50 [6]: 3.93 µM
- GI50 ([6]; 5-dose assay): 3.93 µM
- CC50 [6]: 38.9 µM
- IC (TGI) [6]: 13.9 µM
- GI50 [7]: > 100 µM
- CC50 [7]: > 100 µM
- IC (TGI) [7]: > 100 µM
- GI50 [8]: 48.5 µM
- CC50 [8]: > 100 µM
- IC (TGI) [8]: > 100 µM
- GI50 [9]: 3.49 µM
- CC50 [9]: 58.6 µM
- IC (TGI) [9]: 14.6 µM
- GI50 [10]: 2.13 µM
- CC50 [10]: 31.8 µM
- IC (TGI) [10]: 5.88 µM
- GI50 [11]: 3.74 µM
- CC50 [11]: 44.3 µM
- IC (TGI) [11]: 14.3 µM
- GI50 [12]: 4.99 µM
- CC50 [12]: 49.3 µM
- IC (TGI) [12]: 17.6 µM
- GI50 [13]: 20.1 µM
- CC50 [13]: > 100 µM
- IC (TGI) [13]: > 100 µM
- GI50 [14]: 27.1 µM
- CC50 [14]: > 100 µM
- IC (TGI) [14]: 87.3 µM
- GI50 [15]: 45.3 µM
- CC50 [15]: > 100 µM
- IC (TGI) [15]: > 100 µM
- Percent Growth ([16]; Log10 Concentration −4.0): −55%
- Percent Growth ([16]; Log10 Concentration −5.0): 14%
- Percent Growth ([16]; Log10 Concentration −6.0): 95%
- Percent Growth ([16]; Log10 Concentration −7.0): 101%
- Percent Growth ([16]; Log10 Concentration −8.0): 100%
- GI50 [17]: 15.8 µM
- CC50 [17]: 84.3 µM
- IC (TGI) [17]: 36.5 µM
- GI50 [18]: 42.7 µM
- CC50 [18]: > 100 µM
- IC (TGI) [18]: > 100 µM
- GI50 [19]: 11.4 µM
- CC50 [19]: 59.4 µM
- IC (TGI) [19]: 26 µM

Compound: C=C1C(=O)O[C@H]2[C@H]1CC/C(COC(=O)OCCN(C)C)=C\CC[C@@]1(C)O[C@@H]21 [JVM 2-35]
- GI50 [1]: 22.9 µM
- CC50 [1]: > 100 µM
- IC (TGI) [1]: 82.1 µM
- GI50 [2]: 15.8 µM
- CC50 [2]: 61.9 µM
- IC (TGI) [2]: 31.3 µM
- Percent Growth ([3]; Log10 Concentration −4.0): −29%
- Percent Growth ([3]; Log10 Concentration −5.0): 91%
- Percent Growth ([3]; Log10 Concentration −6.0): 98%
- Percent Growth ([3]; Log10 Concentration −7.0): 99%
- Percent Growth ([3]; Log10 Concentration −8.0): 98%
- GI50 [3]: 21.8 µM
- CC50 [3]: > 100 µM
- IC (TGI) [3]: 57.2 µM
- GI50 [4]: 3.59 µM
- CC50 [4]: 37.7 µM
- IC (TGI) [4]: 13.2 µM
- GI50 [5]: 20.3 µM
- CC50 [5]: > 100 µM
- IC (TGI) [5]: 45.2 µM
- GI50 ([6]; NCI five dose): 3.92 µM
- CC50 [6]: 43.8 µM
- IC (TGI) [6]: 15.1 µM
- GI50 [7]: 24.7 µM
- CC50 [7]: > 100 µM
- IC (TGI) [7]: > 100 µM
- GI50 [8]: 27.5 µM
- CC50 [8]: > 100 µM
- IC (TGI) [8]: 83.3 µM
- GI50 [9]: 17.7 µM
- CC50 [9]: > 100 µM
- IC (TGI) [9]: 44 µM
- GI50 [10]: 1.5 µM
- CC50 [10]: 9.57 µM
- IC (TGI) [10]: 3.79 µM
- GI50 [11]: 3.26 µM
- CC50 [11]: 40.9 µM
- IC (TGI) [11]: 13.4 µM
- GI50 [12]: 5.82 µM
- CC50 [12]: 44.8 µM
- IC (TGI) [12]: 19.5 µM
- GI50 [13]: 13.6 µM
- CC50 [13]: > 100 µM
- IC (TGI) [13]: 59.3 µM
- GI50 [14]: 20.7 µM
- CC50 [14]: > 100 µM
- IC (TGI) [14]: 52.1 µM
- GI50 [15]: 18.6 µM
- CC50 [15]: > 100 µM
- IC (TGI) [15]: 62 µM
- Percent Growth ([16]; Log10 Concentration −4.0): −52%
- Percent Growth ([16]; Log10 Concentration −5.0): −17%
- Percent Growth ([16]; Log10 Concentration −6.0): 72%
- Percent Growth ([16]; Log10 Concentration −7.0): 83%
- Percent Growth ([16]; Log10 Concentration −8.0): 94%
- GI50 [17]: 16 µM
- CC50 [17]: 91 µM
- IC (TGI) [17]: 38.2 µM
- GI50 [18]: 11.9 µM
- CC50 [18]: 89.9 µM
- IC (TGI) [18]: 32.7 µM
- GI50 [19]: 2.75 µM
- CC50 [19]: 37.3 µM
- IC (TGI) [19]: 12.1 µM

Source: patent US9469650B2, “Melampomagnolide B derivatives” (BOARD OF TRUSTEES OF THE UNIVERSITY OF ARKANSAS, priority 2013, dated 2016)
